This experiment concerns bESC lines Alp 0501 and Alp 0505. Kind of experiment: bESC differentiation to mesoderm, qPCR of Oct4 and Brachyury. It counts as cell-based, bovine. As to conditions: 8 μM CHIR 99021 added to Essential 6 medium, aggregates expanded three days, FIG. 5. How it is done: Quantitative PCR (qPCR) analysis was performed as follows: • 1. Total RNA was extracted from the cells using GeneJET RNA purification kit (Thermo Fisher Scientific). • 2. Reverse transcription was carried out with RevertAid First Strand cDNA Synthesis Kit (Thermo Fisher Scientific). 3. Quantitative PCR (qPCR) was performed to analyze expression of specific genes using specific primers designed for use in probe-based detection method. • 4. All expression data were normalized to beta-actin. Relative quantification of fold change was calculated using the comparative Ct (ΔΔCt) method. Initial differentiation of bESC to mesoderm: • 1. Cells were harvested and seeded for aggregates formation in 6-well plates as detailed in example 4 below. • 2. The initial conditions were: • a. bESC in the growth medium mTeSR1 (StemCell technologies) • b. bESC in the growth medium Essential 8 (Thermo Fisher Scientific) • 3. Four days after seeding, the medium was replaced to form the following conditions: • a. Medium of bESC aggregates formed in mTeSR1 remained. • b. Medium of bESC aggregates formed in Essential 8 medium was replaced to Essential 6 medium (Thermo Fisher Scientific) • Or— • c. Medium of bESC aggregates formed in Essential 8 medium was replaced to Essential 6 supplemented with 8 μM CHIR 99021. • 4. […]

Turning to `Cc1cnc(-c2cnc(NCCNc3ccc(C#N)cn3)nc2-c2ccc(Cl)cc2Cl)[nH]1` [CHIR 99021, 6-[[2-[[4-(2,4-Dichlorophenyl)-5-(5-methyl-1H-imidazol-2-yl)-2-pyrimidinyl]amino]ethyl]amino]-3-pyridinecarbonitrile], the “Brachyury expression (initial mesoderm marker)” value was “increase” and the “Oct4 expression (pluripotency marker)” value is recorded as “additional decrease”.

These data come from patent publication US12247216B2, “Pluripotent cell aggregates and use thereof” (ALEPH FARMS LTD., priority 2019, dated 2025).
